Structures are written as SMILES.

One test concerns CD4-CD8+ cells. Kind of test: Subset test of lymphocytes from thymus (Example 2). The note with it: 10 mg/kg orally once a day for 7 days. It counts as in vivo, mouse. On the procedure:
Mice (35 to 45 weeks old, BALB/cAJc1) preliminary raised for 1 week were injected with 10 mg of ALA hydrochloride per 1 kg mouse body weight once a day for 7 days continuously. ALA hydrochloride was adjusted to a concentration of […] with distilled water and orally administered to the mice. After the test, each mouse was sacrificed and the weight of its thymus and the number of cells were measured. In addition, a subset test of lymphocytes was carried out using the obtained cells. The test was carried out using 5 mice per 1 plot, and their values were shown by average value. […] Also, since the cell of CD4-CD8+ was increased in the ALA-treated plot based on the subset test, it was confirmed that the cytotoxic T cell increases after its future differentiation, so that its immunological function improving ability was shown (Table 3). In addition, photographs of the thymus of untreated plot (un-administered group) and the thymus of ALA-treated plot (ALA-treated group) are shown in FIG. 1.

In test [1] the test system is superoxide dismutase (SOD). Kind of test: SOD activity of thymus tissue (Example 3). The class given is in vivo, mouse. Particulars: 10 mg/kg orally once a day for 7 days. On the procedure:
Mice (35 to 45 weeks old, BALB/cAJc1) preliminary raised for 1 week were injected with 10 mg of ALA hydrochloride per 1 kg mouse body weight once a day for 7 days continuously. ALA hydrochloride was adjusted to a concentration of […] with distilled water and orally administered to the mice. After the test, each mouse was sacrificed and the thymus of mouse was collected to measure superoxide dismutase (SOD) activity of its tissue. To the collected thymus, 1.0 ml of 0.25 M sucrose solution was added, and the mixture homogenized and then centrifuged at 10,000 G for 10 minutes, and the resulting supernatant solution was used as the enzyme solution. The measurement was carried out using an emission reagent for antioxidant ability measurement, MPEC (2-methyl-6-p-methoxyphenylethynylimidazopyrazinone) (manufactured by Atto Corp.). That is, 250 μl of a reaction solution containing 125 μl of 0.1 M potassium phosphate buffer (pH 7.5), 10 μl of the enzyme liquid, 60 μl of 0.1 unit/ml xanthine oxidase, 45 μl of distilled water and 10 μl of 0.3 mM MPEC was dispensed into Luminescencer-PSN (manufactured by Atto Corp.), 50 μl of 0.72 mM hypoxanthine (pH 7.5) was added for emission. For the calculation of emission inhibition ratio, the buffer was used instead of the enzyme liquid. For the calculation, a calibration curve was prepared using standard SOD, and the concentration calculation was carried out using this.
The test was carried out using 5 male and 5 female mice, a total of 10 animals, for each plot, and the values were shown by average value. It was confirmed that the SOD activity or GPx activity is improved in both cases of male and female in the ALA-treated plot.

The subject of another test is ALA dehydrase (ALAD). As to the kind of experiment: ALAD activity of blood (Example 5). The class given is in vivo, mouse. The note with it: male mice, 10 mg/kg orally once a day for 7 days. On the procedure:
Mice (35 to 45 weeks old, BALB/cAJc1) preliminary raised for 1 week were injected with 10 mg of ALA hydrochloride per 1 kg mouse body weight once a day for 7 days continuously. ALA hydrochloride was adjusted to a concentration of […] with distilled water and orally administered to the mice. After the test, each mouse was sacrificed to collect mouse blood, and ALA dehydrase (ALAD) activity (the activity of ALA in which it is dimerized and thereby forms porphobilinogen (hereinafter referred to as “PBG”) as one molecule pyrrole substance) and porphobilinogen deaminase (PBGD) activity (the activity to convert from PBG to hydroxymethylbilane) per 1 ml of the blood were measured. […] To 0.02 ml of heparin-treated mouse whole blood, 0.33 ml of distilled water was added, the mixture was adjusted to a total volume of 0.5 ml by adding thereto 0.05 ml of 0.5 M Na-phosphate buffer (pH 6.4), 0.05 ml of 0.1 M DTT (containing 1 mM ZnSO4) and 0.05 ml of 50 mM ALA hydrochloride and was kept at 37° C. for 30 minutes, the reaction was stopped by adding 0.5 ml of 1 M trichloroacetic acid, and then Ehrlich reagent was added to a supernatant after centrifugation at 3000 rpm in the same volume, and precisely 10 minutes thereafter, absorbance at 553 nm, which is a characteristic absorbance of the compound formed by the reaction of Ehrlich reagent with PBG, was measured (OD) using a spectrophotometer. […]

The test system of test [2] is γ-GTP (gamma glutamyl transpeptidase). Kind of test: Blood plasma γ-GTP of broiler chicks (Example 9). The class given is in vivo, chick. An excerpt:
A total of 300 chicks, 150 chicks for females and males respectively, of broiler primary chicks (Chunky) were purchased. After the purchase, chicks having abnormality (weakness or dwarf) were excluded, and the rest were equipped with wing belts for individual identification and their body weights were individually measured. […] Using 15 female or male chicks (30 chicks in total) as 1 group, they were put into a Chick Gird arranged in a closed type barn, and warmed by arranging an infrared ray lamp for animal use. The Chick Gird was expanded along with the growth of chicks. The feed and drinking water were constantly provided. The test groups were set to a total of 3 groups containing a control group in which a control feed (a standard testing feed SDB No. 1 was used from the neonatal to 3 weeks old, or a standard testing feed SDB No. 2 from 3 weeks old to 7 weeks old, (both manufactured by Nippon Formula Feed Mfg Co., Ltd., Table 9) without adding ALA hydrochloride is provided, and 2 test groups of ALA-10 ppm treated group and ALA-50 ppm treated group in which 10 ppm or 50 ppm of ALA hydrochloride is added to the feed and provided, and 3 repetition plots were arranged for each group. The number of chicks to be tested in each test group was as shown in Table 10. The test period was set to 7 weeks (7 weeks old) from the neonatal (start of the added feed provision), and total body weight of females or males was measured for each repetition plot at the time of the neonatal and at intervals of 1 week thereafter. In addition, about 2 ml of blood was collected from a brachial vein (basilic vein) of each of 18 chicks (3 female or male chicks/repetition) of each group at 3 weeks old and 7 weeks old, and about 1.5 ml thereof was subjected to a coagulation preventing treatment using heparin-lithium salt and then the blood plasma was separated to inspect the items of LDH, GOT (AST), γ-GTP, ALP, total protein, albumin, globulin, total cholesterol, triglyceride, glucose, uric acid, total bilirubin, uric acid, creatinine, calcium and inorganic phosphorus.

`NCC(=O)CCC(=O)O` [ALA, 5-aminolevulinic acid]: the “CD4−CD8+ (%)” value amounted to 3.25% in the test on CD4-CD8+ cells (female mice) and 5.55% in the test with CD4-CD8+ cells (male mice). Moreover, the SOD activity in test [1] (female mice) is 30.7 U/ml; in test [1] (male mice), 20.2 U/ml. For the same compound, the “Total SOD activity” value in test [1] (female mice) is 31.84 U/organ; in test [1] (male mice) it was 20.95 U/organ. The ALAD activity with ALA dehydrase (ALAD) worked out at 1.76 μmol PBG/ml RBC/h. Moreover, the “γ-GTP (IU/l)” value in test [2] (10 ppm in feed, 3 weeks old) is 29.7 IU/l; in test [2] (10 ppm in feed, 7 weeks old), 29.7 IU/l; in test [2] (50 ppm in feed, 3 weeks old), 30.0 IU/l; in test [2] (50 ppm in feed, 7 weeks old) it was 32.7 IU/l.

For the origin of these results see patent publication US8790712B2, “Constitutional function-improving agents” (Cosmo Oil Co., Ltd., priority 2004, dated 2014).
